Data: ChEMBL document CHEMBL4177587, “SIRT6 inhibitors with salicylate-like structure show immunosuppressive and chemosensitizing effects” (Bioorg Med Chem, 2017)
In brackets after ≈: the same amount, converted by molar mass. Activity calls are given as the source filed them. The rule behind the calls is not given here.

Legend:
[1] = target: T1, NAD-dependent protein deacylase sirtuin-6 (Homo sapiens, UniProt Q8N6T7); test: Inhibition of human recombinant SIRT6 assessed as reduction in NAD+-dependent deacetylase activity at 200 uM using Arg-His-Lys-Lys(epsilon-acetyl)-AMC substrate and NAD+ by fluorescence based assay
[2] = target: T2, NAD-dependent protein deacetylase sirtuin-1 (Homo sapiens, UniProt Q96EB6); test: Inhibition of human recombinant SIRT1 assessed as reduction in NAD+-dependent deacetylase activity using Arg-His-Lys-Lys(epsilon-acetyl)-AMC substrate and NAD+ by fluorescence based assay
T2 sequence (Q96EB6 whole entry): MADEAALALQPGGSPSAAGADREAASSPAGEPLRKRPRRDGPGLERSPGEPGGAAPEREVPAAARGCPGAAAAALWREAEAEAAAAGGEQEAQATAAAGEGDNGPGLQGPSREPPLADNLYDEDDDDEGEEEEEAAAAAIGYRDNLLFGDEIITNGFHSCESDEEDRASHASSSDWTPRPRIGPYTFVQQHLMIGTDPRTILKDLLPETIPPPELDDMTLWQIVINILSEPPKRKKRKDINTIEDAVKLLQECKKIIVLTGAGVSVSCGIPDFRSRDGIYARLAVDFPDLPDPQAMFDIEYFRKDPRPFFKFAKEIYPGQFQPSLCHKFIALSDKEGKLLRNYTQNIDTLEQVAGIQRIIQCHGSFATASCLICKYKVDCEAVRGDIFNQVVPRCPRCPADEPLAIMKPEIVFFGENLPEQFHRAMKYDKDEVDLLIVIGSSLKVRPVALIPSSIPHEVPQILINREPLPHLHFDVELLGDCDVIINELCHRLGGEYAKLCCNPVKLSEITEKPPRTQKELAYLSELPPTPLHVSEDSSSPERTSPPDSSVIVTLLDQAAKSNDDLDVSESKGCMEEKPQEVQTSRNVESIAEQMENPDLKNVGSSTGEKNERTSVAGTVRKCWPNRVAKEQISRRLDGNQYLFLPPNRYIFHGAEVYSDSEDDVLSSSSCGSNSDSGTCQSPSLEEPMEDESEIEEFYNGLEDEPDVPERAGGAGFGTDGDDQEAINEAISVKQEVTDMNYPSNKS

[3] = target: T3, NAD-dependent protein deacetylase sirtuin-2 (Homo sapiens, UniProt Q8IXJ6); test: Inhibition of human recombinant SIRT2 assessed as reduction in NAD+-dependent deacetylase activity using Arg-His-Lys-Lys(epsilon-acetyl)-AMC substrate and NAD+ by fluorescence based assay
T3 sequence (Q8IXJ6 whole entry): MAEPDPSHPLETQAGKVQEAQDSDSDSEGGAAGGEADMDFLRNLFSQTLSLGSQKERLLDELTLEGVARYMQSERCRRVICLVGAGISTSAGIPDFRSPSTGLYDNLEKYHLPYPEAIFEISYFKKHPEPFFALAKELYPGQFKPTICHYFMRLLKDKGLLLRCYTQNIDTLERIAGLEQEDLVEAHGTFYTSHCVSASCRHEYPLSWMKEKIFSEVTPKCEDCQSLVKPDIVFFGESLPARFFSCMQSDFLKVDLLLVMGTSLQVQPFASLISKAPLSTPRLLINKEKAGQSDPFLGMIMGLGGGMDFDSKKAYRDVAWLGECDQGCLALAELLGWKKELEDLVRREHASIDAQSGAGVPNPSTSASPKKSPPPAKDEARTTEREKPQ

[4] = target: T1, NAD-dependent protein deacylase sirtuin-6; test: Competitive inhibition of human recombinant SIRT6 assessed as reduction in NAD+-dependent deacetylase activity at 50 uM using fixed Arg-His-Lys-Lys(epsilon-acetyl)-AMC substrate and varying NAD+ by fluorescence based assay based double-reciprocal plot
[5] = target: T1, NAD-dependent protein deacylase sirtuin-6; test: Competitive inhibition of human recombinant SIRT6 assessed as reduction in NAD+-dependent deacetylase activity at 50 uM using varying Arg-His-Lys-Lys(epsilon-acetyl)-AMC substrate and fixed NAD+ by fluorescence based assay based double-reciprocal plot
[6] = target: T1, NAD-dependent protein deacylase sirtuin-6; test: Inhibition of SIRT6 in human BxPC3 cells assessed as increase in H3K9 acetylation by immunoblotting relative to untreated control; format: cell-based; set-up: concentration or dose not given beside the values
[7] = target: T1, NAD-dependent protein deacylase sirtuin-6; test: Inhibition of SIRT6 in human BxPC3 cells assessed as increase in 2-NBDG uptake at 100 uM incubated for 18 hrs by glucose uptake assay; format: cell-based
[8] = target: T1, NAD-dependent protein deacylase sirtuin-6; test: Inhibition of SIRT6 in human BxPC3 cells assessed as reduction in TNFalpha production at 100 uM incubated for 18 hrs by ELISA method; format: cell-based
[9] = target: T1, NAD-dependent protein deacylase sirtuin-6; test: Inhibition of SIRT6 in human BxPC3 cells assessed as potentiation of gemcitabine-induced cytotoxicity at 30 uM incubated for 72 hrs by Cell-titer96 aqueous one assay; format: cell-based
BXPC-3 = test: Toxicity in human BxPC3 cells assessed as reduction in cell viability at 30 uM incubated for 72 hrs by Cell-titer96 aqueous one assay; format: cell-based; conditions: bxpc-3, 72 h
[10] = Ionisation constant, pKa of the compound; format: physicochemical
[11] = Partition coefficient, log P of the compound; format: physicochemical; conditions: octanol/water
[12] = Intrinsic aqueous solubility in surfactant in 9% Tween 80; format: physicochemical; conditions: 9% Tween 80 surfactant solution
[13] = Intrinsic aqueous solubility in 1.96% Soluplus solution; format: physicochemical
[14] = Intrinsic aqueous solubility in 23% Captisol; format: physicochemical
[15] = Intrinsic aqueous solubility in PBS at pH 7.4; format: physicochemical
[16] = Fraction unbound in human plasma at 1 ug/ml by rapid equilibrium dialysis; format: ADME, cell-free
[17] = Fraction unbound in human plasma at 10 ug/ml by rapid equilibrium dialysis; format: ADME, cell-free
[18] = Fraction unbound in mouse plasma at 1 ug/ml by rapid equilibrium dialysis; format: ADME, cell-free
[19] = Fraction unbound in mouse plasma at 10 ug/ml by rapid equilibrium dialysis; format: ADME, cell-free
[20] = Stability in mouse plasma assessed as half life at 1 uM at 37 degC measured after 4 hrs; format: ADME, cell-free; conditions: 4 h, 1 µM
[21] = AUC (0 to t) in ICR mouse at 5 mg/kg, ip by LC-MS/MS method; format: ADME, organism-based; conditions: in vivo
[22] = AUC (0 to infinity) in ICR mouse at 5 mg/kg, ip by LC-MS/MS method; format: ADME, organism-based; set-up: dose 5 mg/kg, route intraperitoneal, time infinity; conditions: in vivo
[23] = MRT (0 to infinity) in ICR mouse at 5 mg/kg, ip by LC-MS/MS method; format: ADME, organism-based; conditions: in vivo
[24] = Terminal half life in ICR mouse at 5 mg/kg, ip by LC-MS/MS method; format: ADME, organism-based; conditions: in vivo, read-out: beta t1/2 (converted)
[25] = Tmax in ICR mouse at 5 mg/kg, ip by LC-MS/MS method; format: ADME, organism-based; conditions: in vivo
[26] = Cmax in ICR mouse at 5 mg/kg, ip by LC-MS/MS method; format: ADME, organism-based; set-up: dose 5 mg/kg, route intraperitoneal; conditions: in vivo
Mus musculus = test: Toxicity in ICR mouse assessed as induction of abnormalities at 5 mg/kg, ip; format: organism-based; conditions: in vivo

T1 sequence (Q8N6T7 whole entry): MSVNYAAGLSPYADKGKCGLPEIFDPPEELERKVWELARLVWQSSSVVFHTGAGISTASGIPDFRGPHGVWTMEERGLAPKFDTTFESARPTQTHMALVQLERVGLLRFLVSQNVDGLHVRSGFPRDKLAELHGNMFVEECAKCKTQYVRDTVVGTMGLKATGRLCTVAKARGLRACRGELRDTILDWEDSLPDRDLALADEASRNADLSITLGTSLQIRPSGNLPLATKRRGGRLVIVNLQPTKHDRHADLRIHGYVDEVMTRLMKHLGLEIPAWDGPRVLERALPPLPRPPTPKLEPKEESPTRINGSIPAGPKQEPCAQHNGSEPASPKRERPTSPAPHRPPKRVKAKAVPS

Which inhibition [1] does the source give for `O=C(Nc1ccc(O)c(C(=O)O)c1)c1ccc(NC(=O)c2ccco2)cc1` here?
The inhibition was 100%.

And the IC50 [2]?
Its IC50 is 783 µM.

And the IC50 [3]?
The IC50 was 453 µM.

What about the inhibition [4] of the same molecule?
The inhibition was “Active”.

And the inhibition [5]?
The inhibition was “Active”.

And the fold change (FC) [6]?
The fold change (FC) was 1.9.

What about the fold change (FC) [7] of the same molecule?
The fold change (FC) was 1.4.

What about the inhibition [8] of the same molecule?
Its inhibition is 78%.

What about the inhibition [9] of the same molecule?
Its inhibition is “Active”.

And the Activity (BXPC-3)?
The Activity was “Non-Toxic”.

What about the pKa [10] of the same molecule?
The pKa was 2.58.

What about the logP [11] of the same molecule?
Its logP is 2.6.

And the solubility [12]?
Its solubility is 1700 µg/mL (≈ 4640 µM).

And the solubility [13]?
Its solubility is 760 µg/mL (≈ 2070 µM).

What about the solubility [14] of the same molecule?
The solubility was 650 µg/mL (≈ 1770 µM).

What about the solubility [15] of the same molecule?
The solubility was 1400 µg/mL (≈ 3820 µM).

And the fraction unbound at 1 ug/ml [16]?
The fraction unbound at 1 ug/ml was 0.019.

And the fraction unbound at 10 ug/ml [17]?
The fraction unbound at 10 ug/ml was 0.024.

And the fraction unbound at 1 ug/ml [18]?
Its fraction unbound at 1 ug/ml is 0.029.

And the fraction unbound at 10 ug/ml [19]?
The fraction unbound at 10 ug/ml was 0.046.

What about the t1/2 [20] of the same molecule?
The t1/2 was “Stable”.

And the AUC(0-t) [21]?
Its AUC(0-t) is 2830 ng·h/mL.

And the AUC(0-inf) [22]?
The AUC(0-inf) was 2840 ng·h/mL.

And the MRT inf [23]?
The MRT inf was 48.6 min.

What about the half-life [24] of the same molecule?
The half-life was 91.8 min.

And the Tmax [25]?
Its Tmax is 10.2 min.

What about the Cmax [26] of the same molecule?
Its Cmax is 3890 ng/mL.

And the Activity (Mus musculus)?
Its Activity is “Non-Toxic”.
